Article PMC9428149, “Tackling recalcitrant Pseudomonas aeruginosa infections in critical illness via anti-virulence monotherapy” (Nature Communications, 2022)
Like-named read-outs stand apart in the source and are kept apart here.

How the values were obtained:
[1] = tested on: pqsA promoter (PA14 PpqsA-GFPASV); assay: pqsA-GFP reporter expression; assay type: cell-based, Pseudomonas aeruginosa; conditions: PA14 PpqsA-GFPASV; 50µM per b210 (method b76 says 10 µM)
Method: The expression levels of pqsA, which is representative of the pqsABCDE operon transcription, were monitored in the presence of the MvfR inhibitors using PA14 cells containing the PpqsA-GFPASV, a reporter construct of the pqsA promoter fused to a short half-life GFP gene in, such that quantitative quenching of fluorescence corresponds to pqsA promoter repression[22],[32],[48]. […] GFP fluorescence levels were measured at λex = 485 nm/λem = 535 nm after 10 seconds of shaking every 15 min up to 12 h. The IC50 of PpqsA-GFP expression levels was performed as above using the same 13 different concentrations (0.0122–50 μM) for each of the 13 compounds tested.

[2] = molecular target: T1, MvfR protein (MvfRC87) (Pseudomonas aeruginosa, UniProt Q9I4X0); assay type: binding; conditions: SPR
T1 construct: The MvfRC87 protein purified as in Xiao et. al., 2006; made in house
T1 sequence (Q9I4X0 87-332): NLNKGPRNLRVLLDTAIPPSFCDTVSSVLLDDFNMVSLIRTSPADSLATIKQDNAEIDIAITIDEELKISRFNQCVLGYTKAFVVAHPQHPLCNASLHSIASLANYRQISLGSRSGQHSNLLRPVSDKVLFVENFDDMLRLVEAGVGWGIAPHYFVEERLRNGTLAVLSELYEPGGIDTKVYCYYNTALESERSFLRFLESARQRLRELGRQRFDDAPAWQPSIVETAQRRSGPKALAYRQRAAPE
Method: The selected compounds were tested for their ability to bind to MvfR. Target validation was carried out by using surface plasmon resonance (SPR). The MvfRC87 protein purified as in Xiao et. al., 2006[33] was covalently immobilized on a CM7 Series S sensor chip using an amine coupling reagent kit (GE Healthcare) at the range level of 3000 to 5000 response units (RU). RU was analyzed by Biacore T200 evaluation software 2.0 (GE Healthcare). The relative response units (RUs) 5 seconds before the end of the association were extracted from the double-reference-corrected sensor grams at different concentrations. These responses were plotted against their respective concentrations for MvfR inhibitor alone and in the presence of native MvfR ligand PQS and compared to the calculated responses for the mixture expected for different binding sites.

[3] = tested on: pyocyanin production in PA14; assay: Pyocyanin production assay; conditions: PA14; 50µM of each inhibitor (method says 10 μM); vs vehicle
Method: The over-day culture was grown to OD600nm 1.5., diluted again at 1:10,000 in 5 mL LB and incubated with 10 μM of the test compound or the vehicle control for 18 hours at 37 °C and 200 rpm in an incubator shaker. After 18 h, 1 mL of culture was centrifuged for 2 min at 20.000 x g. The supernatant was transferred to a new tube, 200 μL of this were loaded in a flat-bottom 96-well plate, and the pyocyanin levels were quantified by measuring at OD690nm in the infinite F200 plate reader using the Magellan software (Tecan, Switzerland). […] The percent of pyocyanin was calculated compared to the PA14 culture grown in the absence of compounds.
To determine the IC50 of pyocyanin production, we followed the same process as above. […] Using GraphPad Prism Software, the IC50 curve was plotted against percent inhibition of pyocyanin production at each concentration using PA14 in the absence of compounds as a control.

[4] = tested on: MvfR-regulated small molecules in PA14; assay: Production of HAQs, 2-AA, DHQ and AA in PA14 cultures (LC-MS); conditions: PA14, 50µM inhibitor; for % Production AA: anthranilic acid, precursor control

SMILES	% Production pqsA-GFP [1]	Response Unit (RU) ([2]; Concentration 1.00E-05 M)	Response Unit (RU) ([2]; Concentration 1.00E-06 M)	Response Unit (RU) ([2]; Concentration 1.00E-07 M)	Response Unit (RU) ([2]; Concentration 1.00E-08 M)	Response Unit (RU) ([2]; Concentration 3.16E-06 M)	Response Unit (RU) ([2]; Concentration 3.16E-07 M)	Response Unit (RU) ([2]; Concentration 3.16E-08 M)	% Production Pyocyanin [3]	% Production 2-AA [4]	% Production DHQ [4]	% Production HHQ [4]	% Production HQNO [4]	% Production PQS [4]	% Production AA [4]
Cc1cc(F)ccc1NCC(=O)Nc1ccc(C#N)cc1 [M17]	32%	18.8 RU	6.7 RU	1.3 RU	0.7 RU	12.6 RU	3 RU	0.7 RU	67%	101%	135%	3%	17%	11%	100%
Cc1cc(F)ccc1NCC(=O)Nc1ccc(F)cc1 [G4]	92%								84%	80%	85%	95%	92%	88%	
Cc1cc(F)ccc1NCC(=O)Nc1ccccc1C#N [G3]	96%								113%	123%		99%	111%	122%	
O=C(CC(=O)Nc1ccc(Oc2ccccc2)cc1)Nc1ccc(Cl)cc1 [D67]	41%								26%	84%	105%	101%	105%	106%	155%
N#Cc1ccc(NC(=O)CC(=O)Nc2ccc(NC(=O)C(F)(F)F)cc2)cc1 [D54]	85%								94%	117%	108%	103%	101%	101%	82%
N#Cc1ccc(NC(=O)CC(=O)Nc2ccc(Oc3ccccc3)cc2)c(O)c1 [D63]	7%								6%	5%	4%	0%	4%	4%	68%
N#Cc1ccc(NC(=O)CC(=O)Nc2ccc(F)cc2)cc1 [D36]	10%								16%	37%	68%	57%	59%	47%	187%
N#Cc1ccc(NC(=O)CC(=O)Nc2ccc(I)cc2)cc1 [D56]	6%								13%	72%	136%	63%	69%	62%	180%
Cc1cc(F)ccc1N1CCCC(NC(=O)c2ccc(C#N)cc2)C1 (centres unmarked) [D38]	90%								108%	101%	84%	98%	100%	96%	54%
O=C(CC(=O)Nc1ccc(Oc2ccccc2)cc1)Nc1ccc(I)cc1 [D59]	81%								72%	92%	93%	99%	97%	93%	131%
Cc1cc(F)ccc1CCNC(=O)c1ccc(C#N)cc1 [D39]	91%								110%	106%	96%	96%	102%	93%	68%
O=C(CC(=O)Nc1ccc(Oc2ccccc2)cc1)Nc1ccc(F)cc1 [D68]	52%								33%	84%	109%	121%	121%	137%	127%
N#Cc1ccc(NC(=O)C(=O)Nc2ccc(F)cc2)cc1 [D37]	97%								106%	103%	105%	98%	99%	110%	90%
Cc1cc(F)ccc1NC(C)C(=O)Nc1ccc(C#N)cc1 (centres unmarked) [G6]	87%								110%	152%		106%	131%	115%	
N#Cc1ccc(NC(=O)CCC(=O)Nc2ccc(F)cc2)cc1 [D47]	78%								99%	100%	100%	95%	93%	94%	42%
N#Cc1ccc(NC(=O)CC(=O)Nc2cccc(Cl)c2)cc1 [D71]	10%	31.7 RU	19.5 RU	5.9 RU	2.4 RU	26.8 RU	11.4 RU	3.1 RU	13%	57%	92%	106%	127%	105%	207%
CS(=O)(=O)Nc1ccc(NC(=O)CC(=O)Nc2ccc(C#N)cc2)cc1 [D55]	131%								100%	95%	80%	130%	98%	115%	117%
N#Cc1ccc(NC(=O)CNc2ccc(F)cc2)cc1 [G8]	63%								86%	112%		87%	108%	124%	
CC(=O)c1ccc(NC(=O)CC(=O)Nc2ccc(C#N)cc2)cc1 [D49]	28%								66%	90%	106%	120%	101%	119%	131%
N#Cc1ccc(NC(=O)CC(=O)Nc2ccc([N+](=O)[O-])cc2)cc1 [D51]	10%								3%	7%	12%	3%	18%	6%	263%
